Paper PMC5988656, “Phase I studies of AZD1208, a proviral integration Moloney virus kinase inhibitor in solid and haematological cancers” (British Journal of Cancer, 2018)

Assay: AML dose-escalation study: pharmacokinetics (plasma, urine)
Format: in vivo, human
Protocol: The schedules for collection of blood and urine samples for PK analyses in each cohort in both studies are described in Supplementary Table 1. When necessary for clinical response assessment in the AML study, a bone marrow sample for PK analysis was collected at Cycle 1, Day 28.
The concentration of AZD1208 in plasma and urine was determined by Covance, on behalf of Clinical Bioanalysis Alliance at AstraZeneca R&D, using a bioanalytical method. A volume of 0.05 ml of K2EDTA human plasma sample was extracted by liquid–liquid extraction using 0.7 ml of methyl tert-butyl ether. Approximately 100 µl of the supernatant was transferred, evaporated to dryness and reconstituted with 350 µl of 1:1 methanol:water, and a 5 µl injection was made to the high-performance liquid chromatography (HPLC) column. HPLC separations were performed on a Phenomenex LUNA C18 (50 × 2 mm, 5 µm) column using a mobile phase of 0.1% formic acid in water (A) and 0.1% formic acid in acetonitrile (B) at a flow rate of 0.6 ml/min and a column temperature of 40 °C. AZD1208-D5 was used as the internal standard. Detection was performed in a Sciex API4000 mass spectrometer, in a positive electrospray ionisation mode, using multiple reaction monitoring detection (AZD1208: 380.0–>248.1; AZD1208-D5: 385.0–>253.1).

## N[C@@H]1CCCN(c2c(/C=C3\SC(=O)NC3=O)cccc2-c2ccccc2)C1 [AZD1208]
240 mg
  Percentage of patients with a lower accumulation ratio: 0%
900 mg
  Percentage of patients with a lower accumulation ratio: 67%
120–900 mg doses, 4/16 patients
  Patients with significantly lower exposure at steady state compared with the first dose: 25%
Cycle 1, Day 1
  Dose proportionality of Cmax and AUC0–24: dose proportional
Cycle 1, Day 1, 120 mg, n=3
  Tmax, median: 2.42 h
Cycle 1, Day 1, 240 mg, n=6
  Tmax, median: 2.20 h
Cycle 1, Day 1, 480 mg, n=6
  Tmax, median: 3.17 h
Cycle 1, Day 1, 700 mg, n=7
  Tmax, median: 3.05 h
Cycle 1, Day 1, 900 mg, n=9
  Tmax, median: 3.20 h
Cycle 1, Day 1, 0.5 h post-dose, 120 mg, n=3
  Gmean plasma concentration of AZD1208 (± SD): 85.8 (40.1, 183.9) ng ml
Cycle 1, Day 1, 0.5 h post-dose, 240 mg, n=6
  Gmean plasma concentration of AZD1208 (± SD): 158.3 (14.4, 1740.3) ng ml
Cycle 1, Day 1, 0.5 h post-dose, 480 mg, n=6
  Gmean plasma concentration of AZD1208 (± SD): 124.3 (67.6, 228.6) ng ml
Cycle 1, Day 1, 0.5 h post-dose, 700 mg, n=7
  Gmean plasma concentration of AZD1208 (± SD): 386.8 (93.3, 1603.6) ng ml
Cycle 1, Day 1, 0.5 h post-dose, 900 mg, n=9
  Gmean plasma concentration of AZD1208 (± SD): 251.5 (90.7, 697.2) ng ml
Cycle 1, Day 1, 1 h post-dose, 120 mg, n=3
  Gmean plasma concentration of AZD1208 (± SD): 321.3 (187.8, 549.9) ng ml
Cycle 1, Day 1, 1 h post-dose, 240 mg, n=6
  Gmean plasma concentration of AZD1208 (± SD): 540.4 (133.8, 2182.4) ng ml
Cycle 1, Day 1, 1 h post-dose, 480 mg, n=6
  Gmean plasma concentration of AZD1208 (± SD): 573.0 (248.3, 1322.0) ng ml
Cycle 1, Day 1, 1 h post-dose, 700 mg, n=7
  Gmean plasma concentration of AZD1208 (± SD): 883.8 (351.6, 2221.7) ng ml
Cycle 1, Day 1, 1 h post-dose, 900 mg, n=9
  Gmean plasma concentration of AZD1208 (± SD): 921.4 (373.1, 2275.6) ng ml
Cycle 1, Day 1, 1.5 h post-dose, 120 mg, n=3
  Gmean plasma concentration of AZD1208 (± SD): 774.5 (422.1, 1421.3) ng ml
Cycle 1, Day 1, 1.5 h post-dose, 240 mg, n=6
  Gmean plasma concentration of AZD1208 (± SD): 1098.6 (620.9, 1943.7) ng ml
Cycle 1, Day 1, 1.5 h post-dose, 480 mg, n=6
  Gmean plasma concentration of AZD1208 (± SD): 1243.2 (485.9, 3181.1) ng ml
Cycle 1, Day 1, 1.5 h post-dose, 700 mg, n=7
  Gmean plasma concentration of AZD1208 (± SD): 1849.6 (783.5, 4366.4) ng ml
Cycle 1, Day 1, 1.5 h post-dose, 900 mg, n=9
  Gmean plasma concentration of AZD1208 (± SD): 2106.0 (860.5, 5154.2) ng ml
Cycle 1, Day 1, 2 h post-dose, 120 mg, n=3
  Gmean plasma concentration of AZD1208 (± SD): 779.9 (508.9, 1195.3) ng ml
Cycle 1, Day 1, 2 h post-dose, 240 mg, n=6
  Gmean plasma concentration of AZD1208 (± SD): 1388.6 (1074.3, 1744.9) ng ml
Cycle 1, Day 1, 2 h post-dose, 480 mg, n=6
  Gmean plasma concentration of AZD1208 (± SD): 1852.3 (781.9, 4387.6) ng ml
Cycle 1, Day 1, 2 h post-dose, 700 mg, n=7
  Gmean plasma concentration of AZD1208 (± SD): 2640.6 (1438.6, 4847.0) ng ml
Cycle 1, Day 1, 2 h post-dose, 900 mg, n=9
  Gmean plasma concentration of AZD1208 (± SD): 3553.2 (2352.6, 5366.6) ng ml
Cycle 1, Day 1, 3 h post-dose, 120 mg, n=3
  Gmean plasma concentration of AZD1208 (± SD): 715.6 (415.5, 1232.6) ng ml
Cycle 1, Day 1, 3 h post-dose, 240 mg, n=6
  Gmean plasma concentration of AZD1208 (± SD): 1299.5 (967.1, 1746.2) ng ml
Cycle 1, Day 1, 3 h post-dose, 480 mg, n=6
  Gmean plasma concentration of AZD1208 (± SD): 2865.4 (1884.8, 4356.2) ng ml
Cycle 1, Day 1, 3 h post-dose, 700 mg, n=7
  Gmean plasma concentration of AZD1208 (± SD): 3112.3 (1814.6, 5337.9) ng ml
Cycle 1, Day 1, 3 h post-dose, 900 mg, n=9
  Gmean plasma concentration of AZD1208 (± SD): 3574.9 (1521.4, 8400.4) ng ml
Cycle 1, Day 1, 6 h post-dose, 120 mg, n=3
  Gmean plasma concentration of AZD1208 (± SD): 546.6 (356.7, 837.6) ng ml
Cycle 1, Day 1, 6 h post-dose, 240 mg, n=6
  Gmean plasma concentration of AZD1208 (± SD): 1004.2 (822.5, 1226.0) ng ml
Cycle 1, Day 1, 6 h post-dose, 480 mg, n=6
  Gmean plasma concentration of AZD1208 (± SD): 2642.0 (1774.2, 3934.4) ng ml
Cycle 1, Day 1, 6 h post-dose, 700 mg, n=7
  Gmean plasma concentration of AZD1208 (± SD): 2846.5 (2115.2, 3830.6) ng ml
Cycle 1, Day 1, 6 h post-dose, 900 mg, n=9
  Gmean plasma concentration of AZD1208 (± SD): 4252.0 (2883.8, 6269.4) ng ml
Cycle 1, Day 1, 8 h post-dose, 120 mg, n=3
  Gmean plasma concentration of AZD1208 (± SD): 481.6 (308.4, 752.3) ng ml
Cycle 1, Day 1, 8 h post-dose, 240 mg, n=6
  Gmean plasma concentration of AZD1208 (± SD): 950.3 (825.3, 1094.2) ng ml
Cycle 1, Day 1, 8 h post-dose, 480 mg, n=6
  Gmean plasma concentration of AZD1208 (± SD): 2249.0 (1520.2, 3327.1) ng ml
Cycle 1, Day 1, 8 h post-dose, 700 mg, n=7
  Gmean plasma concentration of AZD1208 (± SD): 3284.7 (2253.3, 4788.2) ng ml
Cycle 1, Day 1, 8 h post-dose, 900 mg, n=9
  Gmean plasma concentration of AZD1208 (± SD): 3882.9 (2438.1, 6184.0) ng ml
Cycle 1, Day 1, 24 h post-dose, 120 mg, n=3
  Gmean plasma concentration of AZD1208 (± SD): 199.0 (75.6, 524.0) ng ml
Cycle 1, Day 1, 24 h post-dose, 240 mg, n=6
  Gmean plasma concentration of AZD1208 (± SD): 844.5 (598.4, 1191.8) ng ml
Cycle 1, Day 1, 24 h post-dose, 480 mg, n=6
  Gmean plasma concentration of AZD1208 (± SD): 2169.6 (1161.6, 4052.3) ng ml
Cycle 1, Day 1, 24 h post-dose, 900 mg, n=9
  Gmean plasma concentration of AZD1208 (± SD): 3045.2 (1664.2, 5572.3) ng ml
Cycle 1, Day 1, pre-dose, 240 mg, n=6
  Gmean plasma concentration of AZD1208 (± SD): 76.9 (NC) ng ml
Cycle 1, Day 14, 0.5 h post-dose, 120 mg, n=3
  Gmean plasma concentration of AZD1208 (± SD): 1758.9 (970.3, 3188.5) ng ml
Cycle 1, Day 14, 0.5 h post-dose, 240 mg, n=6
  Gmean plasma concentration of AZD1208 (± SD): 2365.9 (976.3, 6694.0) ng ml
Cycle 1, Day 14, 0.5 h post-dose, 480 mg, n=6
  Gmean plasma concentration of AZD1208 (± SD): 2887.4 (322.6, 25 841.7) ng ml
Cycle 1, Day 14, 0.5 h post-dose, 700 mg, n=7
  Gmean plasma concentration of AZD1208 (± SD): 2029.2 (863.1, 4770.5) ng ml
